Literature values in patent US11744789B2, “Method for dyeing keratinous material, comprising the use of an organosilicon compound, a colored effect pigment and a sealing reagent III” (Henkel AG & Co. KGaA, priority 2019, dated 2023).

Conditions: for solubility in water: 25° C.

| solubility in water (in words) (at 25° C.) | Compound | solubility in water |
| --- | --- | --- |
| – | O=S(=O)(O)c1ccc(N=Nc2c(O)ccc3ccccc23)cc1 [Acid Orange 7, 4-[(2-hydroxy-1-naphthyl)azo]benzene sulphonate] | more than 7 g/L |
| – | O=[N+]([O-])c1cc([N+](=O)[O-])c2ccc(S(=O)(=O)O)cc2c1O [Acid Yellow 9, 8-hydroxy-5,7-dinitro-2-naphthalenesulfonic acid] | above 40 g/L |
| highly soluble in water | O=C(O)C1=NN(c2ccc(S(=O)(=O)O)cc2)C(=O)C1N=Nc1ccc(S(=O)(=O)O)cc1 (stereo not drawn) [Acid Yellow 23, 4,5-dihydro-5-oxo-1-(4-sulfophenyl)-4-((4-sulfophenyl)azo)-1H-pyrazole-3-carboxylic acid] | – |
